Test: molar heat capacity at saturation pressure
Details: Crystal 2

C1C2CC3CC1CC(C14CC5CC(CC(C5)C1)C4)(C2)C3 [1,1'-biadamantane]
Details | molar heat capacity [J/K/mol]
337.59 K, Small (less than 1 g) adiabatic calorimetry | 432.8
337.89 K, Small (less than 1 g) adiabatic calorimetry | 481.7
338.4 K, Small (less than 1 g) adiabatic calorimetry | 410.4
339.25 K, Small (less than 1 g) adiabatic calorimetry | 400.5
339.33 K, Small (less than 1 g) adiabatic calorimetry | 423.8
340.12 K, Small (less than 1 g) adiabatic calorimetry | 396.8
340.86 K, Small (less than 1 g) adiabatic calorimetry | 403.4
340.99 K, Small (less than 1 g) adiabatic calorimetry | 393.9
341.87 K, Small (less than 1 g) adiabatic calorimetry | 393.4
342.42 K, Small (less than 1 g) adiabatic calorimetry | 398.5
342.75 K, Small (less than 1 g) adiabatic calorimetry | 393.3
343.63 K, Small (less than 1 g) adiabatic calorimetry | 393.7
343.99 K, Small (less than 1 g) adiabatic calorimetry | 395.4
344.52 K, Small (less than 1 g) adiabatic calorimetry | 394.3
345.4 K, Small (less than 1 g) adiabatic calorimetry | 395
345.57 K, Small (less than 1 g) adiabatic calorimetry | 396.6
346.29 K, Small (less than 1 g) adiabatic calorimetry | 395.9
347.15 K, Small (less than 1 g) adiabatic calorimetry | 397.4
347.17 K, Small (less than 1 g) adiabatic calorimetry | 396.8
348.06 K, Small (less than 1 g) adiabatic calorimetry | 397.6
348.72 K, Small (less than 1 g) adiabatic calorimetry | 398.5
348.95 K, Small (less than 1 g) adiabatic calorimetry | 398.4
349.84 K, Small (less than 1 g) adiabatic calorimetry | 399.5
350.3 K, Small (less than 1 g) adiabatic calorimetry | 400
351.09 K, Small (less than 1 g) adiabatic calorimetry | 401.1
351.88 K, Small (less than 1 g) adiabatic calorimetry | 403.6
352.68 K, Small (less than 1 g) adiabatic calorimetry | 402.9
353.46 K, Small (less than 1 g) adiabatic calorimetry | 405.6
354.28 K, Small (less than 1 g) adiabatic calorimetry | 404.8
355.03 K, Small (less than 1 g) adiabatic calorimetry | 407.3
355.88 K, Small (less than 1 g) adiabatic calorimetry | 406.9
356.61 K, Small (less than 1 g) adiabatic calorimetry | 409.2
357.47 K, Small (less than 1 g) adiabatic calorimetry | 408.7
358.18 K, Small (less than 1 g) adiabatic calorimetry | 411.3
359.05 K, Small (less than 1 g) adiabatic calorimetry | 411
359.75 K, Small (less than 1 g) adiabatic calorimetry | 413.4
360.64 K, Small (less than 1 g) adiabatic calorimetry | 412.9
361.32 K, Small (less than 1 g) adiabatic calorimetry | 415.4
362.22 K, Small (less than 1 g) adiabatic calorimetry | 414.6
362.88 K, Small (less than 1 g) adiabatic calorimetry | 417.5
363.82 K, Small (less than 1 g) adiabatic calorimetry | 416.7
364.44 K, Small (less than 1 g) adiabatic calorimetry | 419.7
365.3 K, Large sample (1 g) DSC | 422.2
365.4 K, Small (less than 1 g) adiabatic calorimetry | 418.8
366 K, Small (less than 1 g) adiabatic calorimetry | 421.6
366.98 K, Small (less than 1 g) adiabatic calorimetry | 420.9
367.55 K, Small (less than 1 g) adiabatic calorimetry | 423.3
368.55 K, Small (less than 1 g) adiabatic calorimetry | 423

— the NIST ThermoML archive (doi:10.1016/j.tca.2007.03.018)
